One may read the solubility as the concentration that dissolves in the medium under given conditions. A high value points to a readily soluble substance.

The source of these data is patent US3937809A, “Addition compound of a nucleotide and an amino acid and the use thereof in protection against actinic radiation” (priority 1974, dated 1976).

Values after ≈ are worked out from the molar mass of the structure shown.

Data set [1] in a line: UV absorption in % at 300, 280 and 240 nm (Table 2). It counts as physicochemical. From the text: The following Table illustrates the ultraviolet absorption characteristics at wave lengths of 300 nm, 280 nm, and 240 nm for the compounds of the invention, as well as other known compounds which have been used in the past as sun protective agents.
Data set [2] is described as follows: Solubility in water at 20°C (Table 3). It counts as physicochemical.
The conditions of data set [3]: background statement; cited from earlier work.
The nature of data set [4]: UV spectrum and extinction coefficients in water (Table I). It counts as physicochemical.
A short description of data set [5]: pH of solution (Table I). It counts as physicochemical. The following applies: c=0.005. From the text: The following Table 1 lists additional compounds of the invention along with their physical properties.
Molecular Brutto N(%) pH UV- Extinction coefficients

On to `Nc1ccc(C(=O)O)c(O)c1` [4-Aminosalicylic acid], for which, in data set [1], the “UV Absorption in %, 240 nm” value is reported as 98.5%; the “UV Absorption in %, 280 nm” value stood at 99%; the “UV Absorption in %, 300 nm” value is recorded as 99%.
For `Nc1cc(C(=O)O)c(O)c(S(=O)(=O)O)c1` [5-Amino-3-sulfosalicylic acid-Na2], in data set [1], the “UV Absorption in %, 240 nm” value was 87%; the “UV Absorption in %, 280 nm” value amounted to 0%; the “UV Absorption in %, 300 nm” value is given as 26%.
For `Nc1ncnc2nc[nH]c12` [Adenine], in data set [1], the “UV Absorption in %, 240 nm” value turned out to be 100%; the “UV Absorption in %, 280 nm” value came to 52%; the “UV Absorption in %, 300 nm” value was determined as 14%. In data set [2], this molecule showed a solubility of 840 µg/mL (≈ 6.22 mM).
Consider `Nc1ncnc2c1ncn2[C@@H]1O[C@H](COP(=O)(O)O)[C@@H](O)[C@H]1O` [Adenosine-5'-monophosphoric acid-Na2], for which, in data set [1], the “UV Absorption in %, 240 nm” value came to 80%; the “UV Absorption in %, 280 nm” value is given as 8%; the “UV Absorption in %, 300 nm” value was found to be 6%.
On the same counts, the results for `Nc1ccccc1C(=O)O` [Anthranilic acid(o-Aminobenzoic acid), o-Aminobenzoic acid] are 99%, 48% and 84%.
On to `Nc1ccn([C@@H]2O[C@H](COP(=O)(O)O)[C@@H](O)[C@H]2O)c(=O)n1` [Cytidine-5'-monophosphoric acid-Na2], for which, in data set [1], the “UV Absorption in %, 240 nm” value is 86%; the “UV Absorption in %, 280 nm” value was determined as 88%; the “UV Absorption in %, 300 nm” value came out at 3%.
Turning to `Nc1cc[nH]c(=O)n1` [Cytosine], in data set [1], the “UV Absorption in %, 240 nm” value is reported as 100%; the “UV Absorption in %, 280 nm” value was 98%; the “UV Absorption in %, 300 nm” value was determined as 95%. In data set [2], this molecule gave a solubility of 4000 µg/mL (≈ 36 mM).
With `Nc1nc2nc[nH]c2c(=O)[nH]1` [Guanine], in data set [1], the “UV Absorption in %, 240 nm” value amounted to 73%; the “UV Absorption in %, 280 nm” value stood at 62%; the “UV Absorption in %, 300 nm” value came to 11%.
In the case of `O=c1[nH]cnc2nc[nH]c12` [Hypoxanthine], in data set [1], the “UV Absorption in %, 240 nm” value came to 100%; the “UV Absorption in %, 280 nm” value is on record as 65%; the “UV Absorption in %, 300 nm” value is listed as 6%.
Consider `O=C(O)c1ccccc1O` [Salicylic acid], for which, in data set [1], the “UV Absorption in %, 240 nm” value worked out at 98%; the “UV Absorption in %, 280 nm” value amounted to 74%; the “UV Absorption in %, 300 nm” value came out at 94%.
In the case of `O=c1cc[nH]c(=O)[nH]1` [Uracil], in data set [1], the “UV Absorption in %, 240 nm” value was 90%; the “UV Absorption in %, 280 nm” value was 45%; the “UV Absorption in %, 300 nm” value is listed as 42%. The molecule further registered a solubility in data set [2] of 2000 µg/mL (≈ 17.8 mM).
`O=c1ccn([C@@H]2O[C@H](COP(=O)(O)O)[C@@H](O)[C@H]2O)c(=O)[nH]1` [Uridine-5'-monophosphoric acid-Na2]: in data set [1], the “UV Absorption in %, 240 nm” value came to 70%; the “UV Absorption in %, 280 nm” value was determined as 55%; the “UV Absorption in %, 300 nm” value came out at 0%.
For the molecule `Nc1ccc(C(=O)O)cc1` [p-Aminobenzoic acid], in data set [1], the “UV Absorption in %, 240 nm” value turned out to be 91%; the “UV Absorption in %, 280 nm” value is reported as 100%; the “UV Absorption in %, 300 nm” value is given as 100%. In data set [3], the “ultraviolet absorption of known agents (in words)” value is reported as “insufficient absorption in the ultraviolet portion of the spectrum”.
As to “Adenosine-5'-mono-phosphoric acid-(Na-tryptophane)2 [No. 5]”, the “UV-spectrum λmax” value in data set [4] was determined as 220 mμ. Also, the “mol.Ext.coeff. ε” value in data set [4] (c=0.005, d-l) stood at 320000±4%. In addition, in data set [4] (c=0.005, d-l, ratio), the “Extinction coefficients E250/E260” value was 0.76, the “Extinction coefficients E280/E260” value is listed as 0.67 and the “Extinction coefficients E290/E260” value was 0.33. The pH in data set [5] was determined as 7.0.
“Cytidine-5'-monophosphoric acid-(o-aminobenzoic acid)2 Na2”: in data set [1], the “UV Absorption in %, 240 nm” value came out at 98%; the “UV Absorption in %, 280 nm” value is 79%; the “UV Absorption in %, 300 nm” value is given as 55.5%.
